{"source": "paper PMC3507690", "about": "“A Single Glycine-Alanine Exchange Directs Ligand Specificity of the Elephant Progestin Receptor” (PLoS ONE, 2012)", "molecular_target": "T1, hPR LBD (initial construct) (Homo sapiens, UniProt P06401)", "T1 construct": "gene PGR; pET3d, E. coli BL21 lysate; cloned from HOSE cell cDNA", "T1 sequence (P06401 634-933)": "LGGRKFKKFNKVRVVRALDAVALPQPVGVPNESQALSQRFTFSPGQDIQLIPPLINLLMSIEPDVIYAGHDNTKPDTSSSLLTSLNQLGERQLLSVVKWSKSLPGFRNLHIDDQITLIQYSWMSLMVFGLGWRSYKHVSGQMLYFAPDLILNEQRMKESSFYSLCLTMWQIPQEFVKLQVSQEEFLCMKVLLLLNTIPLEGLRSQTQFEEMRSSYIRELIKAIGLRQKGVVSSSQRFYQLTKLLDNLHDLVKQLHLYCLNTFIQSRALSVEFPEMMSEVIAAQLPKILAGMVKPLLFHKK", "assay": "competitive radioligand binding, charcoal separation, bacterial lysate", "conditions": "1 nM [3H]-progesterone, 16 h, 4 °C; relative binding affinity compared to progesterone", "data": [{"smiles": "CC(=O)[C@H]1CC[C@H]2[C@@H]3CC[C@H]4CC(=O)CC[C@]4(C)[C@H]3CC[C@]12C", "note": "[DHP, 5α-dihydroprogesterone]", "values": [{"measurement": "RBA", "result": "relative binding affinity (RBA) of DHP compared to progesterone measured by competitive binding assays"}]}]}
